US10201558B2, “Compositions of selenoorganic compounds and methods of use thereof” (Alltech, Inc., priority 2014, dated 2019)

Tested on: primary fetal rat neurons
Experiment: Cell survival of primary cortical neurons (cell counts)
Type: cell-based
Conditions: 24 hours, Control 100 ± 1.57, mixture: 30 ppb of the element from each compound; for Viable Cell Number (Mean ± SEM, n = 6): 150 ppb selenium compound(s); for Viable Cell Number (Mean + SEM, n = 6): 150 ppb sulfur compound(s)
Experimental: For primary neurons, dissociated primary cortical neuron cultures were established from E-18 rat embryos as previously described (Lovell et al., Free Radic. Biol. Med. 2000; Lovell et al., Neurobiol. Aging 2001). Studies were carried out on cells 7 days in culture by switching to Locke's solution consisting of 1 mL of 154 mM NaCl, 5.6 mM KCl, 2.3 mM CaCl2, 1.0 mM MgCl2, 3.6 mM NaHCO3, 10 mM glucose, 5 mM HEPES (pH 7.2) with 10 mg/L gentamicin sulfate. Primary neurons were treated for 24 hours in Locke's solution with the indicated selenium and sulfur compounds in Table 5. Cell counts were performed to measure cell survival/toxicity.
The effects of the selenium and sulfur compounds, identified as components of water extracts of selenium-enriched yeast, on neuronal cell survival was also tested. Primary neurons isolated from fetal rat brain were incubated with chemically synthesized individual selenium and sulfur compounds that were identified as components of water extracts of selenium-enriched yeast (Table 5). In this case, the elemental concentration of each compound identified in Table 5 was 150 ppb and, where mixtures were used, the 150 ppb treatment was made up of 30 ppb of the element from each of the five compounds in question.

Compound | Viable Cell Number (Mean ± SEM, n = 6) | Viable Cell Number (Mean + SEM, n = 6)
C[Se]C[C@H](N)C(=O)O [A, L-Methylselenocysteine] | 94.45 ± 1.72 | –
C[Se]CC[C@H](N)C(=O)O [B, L-Selenomethionine] | 90.59 ± 6.82 | –
CSC[C@H]1O[C@@H](n2cnc3c(N)ncnc32)[C@H](O)[C@@H]1O [Compound H, 5′-deoxy-5′-methylthioadenosine] | – | 100.24 ± 9.45
CSC[C@H](N)C(=O)O [F, L-Methylcysteine] | – | 96.48 ± 3.89
CSCC[C@H](N)C(=O)O [G, L-methionine] | – | 103.84 ± 4.98
